US6638973B2, “Taxane formulations” (FSU Research Foundation, Inc., priority 2000, dated 2003)
Read-outs that look alike come from different tables or passages of the source.

Tested on: HCT116 cells
Test: In vitro cytotoxicity measured by the cell colony formation assay
Assay type: cell-based
Details: colonies counted after 7 days, read-out: IN VITRO ID 50 (nm) HCT116
In short: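 Colony-forming survival was scored 7 days after a 72 h, 37 °C compound exposure followed by washout into fresh medium.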

[1] = HCT116 colony formation, 72 h drug incubation, Example 10, C-10 ester/C-7 hydroxy taxanes
[2] = HCT116 cells, 72 h incubation with drug, ID50 = drug concentration producing 50% inhibition of colony formation
[3] = HCT116 colony formation, 72 h drug incubation, Example 5, C-7 ester/C-10 hydroxy taxanes

SMILES: CCCC(=O)O[C@H]1C(=O)[C@@]2(C)C([C@H](OC(=O)c3ccccc3)[C@]3(O)C[C@H](OC(=O)[C@H](O)[C@H](C=C(C)C)NC(=O)OCC(C)C)C(C)=C1C3(C)C)[C@]1(OC(C)=O)CO[C@@H]1C[C@@H]2O (stereo partly shown) [Compound 5144]
- IC50 [1]: < 10 nM

SMILES: CCOC(=O)O[C@H]1C(=O)[C@@]2(C)C([C@H](OC(=O)c3ccccc3)[C@]3(O)C[C@H](OC(=O)[C@H](O)[C@@H](NC(=O)C=C(C)C)c4cccs4)C(C)=C1C3(C)C)[C@]1(OC(C)=O)CO[C@@H]1C[C@@H]2O (stereo partly shown) [Compound 4374]
- IC50 [2]: < 1 nM

SMILES: CC(=O)OC12COC1CC(O)C1(C)C(=O)C(OC(=O)c3cccs3)C3=C(C)C(OC(=O)C(O)C(NC(=O)OC(C)(C)C)c4ccncc4)CC(O)(C(OC(=O)c4ccccc4)C21)C3(C)C (stereo not shown) [Compound 1954]
- IC50 [1]: < 1 nM

SMILES: C/C=C/C(=O)N[C@@H](c1ccco1)[C@@H](O)C(=O)O[C@H]1C[C@@]2(O)[C@@H](OC(=O)c3ccccc3)C3[C@](C)(C(=O)[C@H](O)C(=C1C)C2(C)C)[C@@H](OC(=O)C(C)C)C[C@H]1OC[C@@]31OC(C)=O (stereo partly shown) [Compound 6202]
- IC50 [3]: < 1 nM

SMILES: CC(=O)O[C@@]12CO[C@@H]1C[C@H](O)[C@@]1(C)C(=O)[C@H](OC(=O)C=C(C)C)C3=C(C)[C@@H](OC(=O)[C@H](O)[C@@H](NC(=O)OC(C)(C)C)c4ccccc4)C[C@@](O)([C@@H](OC(=O)c4ccccc4)C12)C3(C)C (stereo partly shown) [Compound 2520]
- IC50 [1]: < 10 nM

SMILES: CC(=O)O[C@@]12CO[C@@H]1C[C@H](O)[C@@]1(C)C(=O)[C@H](OC(=O)C3CC3)C3=C(C)[C@@H](OC(=O)[C@H](O)[C@@H](NC(=O)OC(C)(C)C)c4ccco4)C[C@@](O)([C@@H](OC(=O)c4ccccc4)C12)C3(C)C (stereo partly shown) [Compound 0843]
- IC50 [1]: < 1 nM

SMILES: CC(=O)O[C@@]12CO[C@@H]1C[C@H](OC(=O)COc1ccccc1)[C@@]1(C)C(=O)[C@H](O)C3=C(C)[C@@H](OC(=O)[C@H](O)[C@@H](NC(=O)C=C(C)C)c4ccco4)C[C@@](O)([C@@H](OC(=O)c4ccccc4)C12)C3(C)C (stereo partly shown) [Compound 5555]
- IC50 (HCT116 colony formation, 72 h drug incubation, Example 15, C-7 substituted acetate/C-10 hydroxy taxanes): < 1 nM

SMILES: CCC(=O)O[C@H]1C(=O)[C@@]2(C)C([C@H](OC(=O)c3ccccc3)[C@]3(O)C[C@H](OC(=O)[C@H](O)[C@@H](NC(=O)c4cccs4)c4cccs4)C(C)=C1C3(C)C)[C@]1(OC(C)=O)CO[C@@H]1C[C@@H]2O (stereo partly shown) [Compound 3425]
- IC50 [1]: < 1 nM

SMILES: CC(=O)O[C@@]12CO[C@@H]1C[C@H](OC(=O)NC1CCCCC1)[C@@]1(C)C(=O)[C@H](O)C3=C(C)[C@@H](OC(=O)[C@H](O)[C@@H](NC(=O)OC(C)(C)C)c4ccco4)C[C@@](O)([C@@H](OC(=O)c4ccccc4)C12)C3(C)C (stereo partly shown) [Compound 5373]
- IC50 (HCT116 cells, 72 h drug incubation, ID50 = drug concentration producing 50% inhibition of colony formation): < 10 nM

SMILES: CC=CC(=O)NC(c1ccoc1)C(O)C(=O)OC1CC2(O)C(OC(=O)c3ccccc3)C3C4(OC(C)=O)COC4CC(O)C3(C)C(=O)C(OC(=O)OCC)C(=C1C)C2(C)C (stereo not shown) [Compound 4959]
- IC50 [2]: < 1 nM

SMILES: CCC(C)(C)OC(=O)N[C@@H](c1ccco1)[C@@H](O)C(=O)O[C@H]1C[C@@]2(O)[C@@H](OC(=O)c3ccccc3)C3[C@](C)(C(=O)[C@H](O)C(=C1C)C2(C)C)[C@@H](OC(=O)CC(C)C)C[C@H]1OC[C@@]31OC(C)=O (stereo partly shown) [Compound 6282]
- IC50 [3]: < 10 nM

SMILES: CCCCC(=O)O[C@H]1C[C@H]2OC[C@@]2(OC(C)=O)C2[C@H](OC(=O)c3ccccc3)[C@]3(O)C[C@H](OC(=O)[C@H](O)[C@@H](NC(=O)OC(C)(C)CC)c4ccco4)C(C)=C([C@@H](O)C(=O)[C@@]21C)C3(C)C (stereo partly shown) [Compound 6343]
- IC50 [3]: < 10 nM

SMILES: C/C=C/C(=O)N[C@@H](c1ccco1)[C@@H](O)C(=O)O[C@H]1C[C@@]2(O)[C@@H](OC(=O)c3ccccc3)C3[C@](C)(C(=O)[C@H](O)C(=C1C)C2(C)C)[C@@H](OC(=O)CCC)C[C@H]1OC[C@@]31OC(C)=O (stereo partly shown) [Compound 4737]
- IC50 [3]: < 1 nM

SMILES: CCC(=O)O[C@H]1C(=O)[C@@]2(C)C([C@H](OC(=O)c3ccccc3)[C@]3(O)C[C@H](OC(=O)[C@H](O)[C@@H](NC(=O)OC(C)(C)C)c4ccccn4)C(C)=C1C3(C)C)[C@]1(OC(C)=O)CO[C@@H]1C[C@@H]2O (stereo partly shown) [Compound 0503]
- IC50 [1]: < 1 nM

SMILES: CC(=O)O[C@@]12CO[C@@H]1C[C@H](O)[C@@]1(C)C(=O)[C@H](OC(=O)C=C(C)C)C3=C(C)[C@@H](OC(=O)[C@H](O)[C@@H](NC(=O)OC(C)(C)C)c4ccco4)C[C@@](O)([C@@H](OC(=O)c4ccccc4)C12)C3(C)C (stereo partly shown) [Compound 2488]
- IC50 [1]: < 1 nM

SMILES: CC(=O)OC12COC1CC(O)C1(C)C(=O)C(OC(=O)c3ccco3)C3=C(C)C(OC(=O)C(O)C(NC(=O)OC(C)(C)C)c4cccnc4)CC(O)(C(OC(=O)c4ccccc4)C21)C3(C)C (stereo not shown) [Compound 2124]
- IC50 [1]: < 10 nM

SMILES: CC(=O)O[C@@]12CO[C@@H]1C[C@H](OC(=O)CC(C)C)[C@@]1(C)C(=O)[C@H](O)C3=C(C)[C@@H](OC(=O)[C@H](O)[C@@H](NC(=O)OC=C(C)C)c4ccco4)C[C@@](O)([C@@H](OC(=O)c4ccccc4)C12)C3(C)C (stereo partly shown) [Compound 6131]
- IC50 [3]: < 1 nM

SMILES: C/C=C/C(=O)O[C@H]1C(=O)[C@@]2(C)C([C@H](OC(=O)c3ccccc3)[C@]3(O)C[C@H](OC(=O)[C@H](O)[C@@H](NC(=O)OC(C)(C)C)C4CCC4)C(C)=C1C3(C)C)[C@]1(OC(C)=O)CO[C@@H]1C[C@@H]2O (stereo partly shown) [Compound 2424]
- IC50 [1]: < 10 nM

SMILES: CCC(C)(C)OC(=O)NC(c1ccco1)C(O)C(=O)OC1CC2(O)C(OC(=O)c3ccccc3)C3C4(OC(C)=O)COC4CC(O)C3(C)C(=O)C(OC(=O)COC)C(=C1C)C2(C)C (stereo not shown) [Compound 6515, N-Debenzoyl-N-tert-amyloxycarbonyl-3′-desphenyl-3′-(2-furyl)-10-methoxyacetyl taxol]
- IC50 (HCT116 colony formation, 72 h drug incubation, Example 20, C-10 substituted acetate/C-7 hydroxy taxanes): < 1 nM

SMILES: CCOC(=O)O[C@H]1C[C@H]2OC[C@@]2(OC(C)=O)C2[C@H](OC(=O)c3ccccc3)[C@]3(O)C[C@H](OC(=O)[C@H](O)[C@@H](NC(=O)OCC(C)C)c4ccoc4)C(C)=C([C@@H](O)C(=O)[C@@]21C)C3(C)C (stereo partly shown) [Compound 4624]
- IC50 [2]: < 10 nM

SMILES: C/C=C/C(=O)N[C@@H](c1cccs1)[C@@H](O)C(=O)O[C@H]1C[C@@]2(O)[C@@H](OC(=O)c3ccccc3)C3[C@](C)(C(=O)[C@H](OC(=O)OCC)C(=C1C)C2(C)C)[C@@H](O)C[C@H]1OC[C@@]31OC(C)=O (stereo partly shown) [Compound 3243]
- IC50 [2]: < 1 nM

SMILES: CC(=O)OC12COC1CC(O)C1(C)C(=O)C(OC(=O)c3ccco3)C3=C(C)C(OC(=O)C(O)C(NC(=O)OC(C)(C)C)C4CCC4)CC(O)(C(OC(=O)c4ccccc4)C21)C3(C)C (stereo not shown) [Compound 2199]
- IC50 [1]: < 10 nM

SMILES: CCOC(=O)O[C@H]1C[C@H]2OC[C@@]2(OC(C)=O)C2[C@H](OC(=O)c3ccccc3)[C@]3(O)C[C@H](OC(=O)[C@H](O)[C@@H](NC(=O)OCC(C)C)C4CC4)C(C)=C([C@@H](O)C(=O)[C@@]21C)C3(C)C (stereo partly shown) [Compound 5225]
- IC50 [2]: < 10 nM

SMILES: CCC(C)(C)OC(=O)N[C@@H](c1ccco1)[C@@H](O)C(=O)O[C@H]1C[C@@]2(O)[C@@H](OC(=O)c3ccccc3)C3[C@](C)(C(=O)[C@H](O)C(=C1C)C2(C)C)[C@@H](OC(=O)OCc1ccccc1)C[C@H]1OC[C@@]31OC(C)=O (stereo partly shown) [Compound 6246]
- IC50 [2]: < 1 nM

SMILES: CCC(=O)O[C@H]1C(=O)[C@@]2(C)C([C@H](OC(=O)c3ccccc3)[C@]3(O)C[C@H](OC(=O)[C@H](O)[C@@H](NC(=O)OCC(C)C)c4cccs4)C(C)=C1C3(C)C)[C@]1(OC(C)=O)CO[C@@H]1C[C@@H]2O (stereo partly shown) [Compound 3163]
- IC50 [1]: < 1 nM
